Data published in patent publication US20260315604A1, “OTUB1 Small-Molecule Binders and OTUB1-recruiting Deubiquitinase-targeting Chimeras (DUBTACs)” (ICAHN SCHOOL OF MEDICINE AT MOUNT SINAI, priority 2023, published 2026).

The molecules below were run against T1, Human OTUB1 wild-type (Homo sapiens, UniProt Q96FW1) (assay: Covalent modification of OTUB1 (adduct formation), mass spectrometry-based assay (OTUB1 covalent binders; selected CFTR or cGAS based bivalent compounds)). Conditions: covalent adduct formation with OTUB1 protein.
T1 construct: His tag (N); made in house; host or cells: E. coli BL21-CodonPlus (DE3)-RIPIL
T1 sequence (Q96FW1 whole entry): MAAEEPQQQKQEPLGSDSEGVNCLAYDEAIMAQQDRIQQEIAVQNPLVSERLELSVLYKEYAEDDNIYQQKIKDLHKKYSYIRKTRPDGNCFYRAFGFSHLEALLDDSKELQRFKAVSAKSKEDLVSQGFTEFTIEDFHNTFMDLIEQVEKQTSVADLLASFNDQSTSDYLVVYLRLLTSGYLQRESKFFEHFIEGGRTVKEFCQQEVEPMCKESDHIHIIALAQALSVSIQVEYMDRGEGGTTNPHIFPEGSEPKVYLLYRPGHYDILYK
Format: binding
Procedure: OTUB1 covalent binders were tested for their ability to form the covalent adduct with OTUB1 protein using a mass-spectrometry based assay.
Example 389. Assessment of the Covalent Modification of OTUB1 Protein by Selected OTUB1 Covalent Binders Using a Mass Spectrometry-Based Assay (FIG. 1)
OTUB1 protein (10 μM) was incubated with selecting compounds (2500 μM) at RT for 1 h. The adduct was qualified by mass spectrometry-based assays.
Example 398. Assessment of the Covalent Modification of OTUB1 Protein by Selected CFTR Based Bivalent Compounds Using Mass Spectrometry-Based Assay (FIG. 10)
OTUB1 protein (10 μM) was incubated with selecting bivalent compounds (2500 μM) at RT for 1 h. The adduct was qualified by mass spectrometry-based assays.
Human OTUB1 wild-type (NM_017670.3) and C23S mutation genes were optimized based on the codon preference of E. coli, synthesized and cloned into pET15b vector with a N-terminal His tag by Genscript, respectively. The plasmid was transferred to BL21-CodonPlus (DE3)-RIPIL Competent Cell (230280, Agilent Technologies) and the recombinant protein was induced expressed by 0.5 mM IPTG at 16° C. with shaking 200 rpm for 18 h. Induced cells were harvested by centrifugation and resuspended in cold lysis buffer (50 mM Tris-H—Cl pH 7.5, 150 mM NaCl, 25 mM imidazole pH 7.5, 0.01% IGEPAL, 5% Glycerol) in the presence of Pierce Protease Inhibitor tablets (PIA32963, Fisher Scientific) and 2 mM TCEP pH 7.5.
The cells were lysed by sonication, clarified by centrifugation, and the filtered supernatant loaded onto a 5 ml HisTrap HP affinity column (17524802, Cytiva) in AKTA system. The His-recombinant protein bound to column was washed using buffer A (50 mM Tris-HCl pH 7.5, 150 mM NaCl, 25 mM imidazole pH 7.5, 0.01% IGEPAL, 5% Glycerol) and eluted with buffer B (50 mM Tris-HCl pH 7.5, 150 mM NaCl, 250 mM imidazole pH 7.5, 0.01% IGEPAL, 5% Glycerol). The eluted fractions containing OTUB1 protein were concentrated and subjected to size exclusion chromatography using a 320 mL HiLoad 26/600 Superdex 200 pg column (28989336, Cytiva) under the buffer condition ([…] Tris-HCl pH 7.5, 150 mM NaCl, and 2 mM TCEP pH 7.5). The eluted fractions containing OTUB1 protein were concentrated, divided into aliquots and stored at −80° C. freezer for further usage.
Quality control of the OTUB1 proteins was performed by SDS-PAGE, Nanodrop and mass spectrometry.
Mass Spectrometry-Based Analysis of OTUB1-Covalent Ligand Adducts
To screen the covalent ligands, recombinant OTUB1 protein (10 μM) was respectively incubated with DMSO, EN523 or seven novel ligands (2500 μM) in reaction buffer (50 mM Tris-HCl pH 7.5, 150 mM NaCl, and 0.5 mM TCEP pH 7.5) for 1 h at room temperature.
Then, the total 500 μL reaction solution was exchanged and concentrated to 50 μL 50 mM ammonium bicarbonate with a 10 kDa MWCO centrifugal filter unit (UFC901024, Millipore) and diluted in MS buffer (30% ACN, 0.2% FA) to a final concentration of […]. Mass spectrometry detection was performed by an Agilent LC/MSD Time-Of-Flight (TOF) mass spectrometer (Agilent Technologies) equipped with an electrospray ion source. The data was analyzed by TOF Protein Confirmation Software. All experiments were performed in duplicate.

| Structure (SMILES) | % of OTUB1 modified |
| --- | --- |
| Cc1ccc(C(=O)N2CC3(CCN(C(=O)/C=C/CN(C)C)CC3)C2)s1 [XS185-66, (E)-4-(dimethylamino)-1-(2-(5-methylthiophene-2-carbonyl)-2,7-diazaspiro[3.5]nonan-7-yl)but-2-en-1-one] | 20% |
| Cc1ccc(C(=O)N2C3CC2CN(C(=O)/C=C/CN(C)C)C3)s1 [XS185-67, (E)-4-(dimethylamino)-1-(6-(5-methylthiophene-2-carbonyl)-3,6-diazabicyclo[3.1.1]heptan-3-yl)but-2-en-1-one] | 15% |
| Cc1ccc(C(=O)N2CC3(CN(C(=O)/C=C/CN(C)C)C3)C2)s1 [XS185-69, (E)-4-(dimethylamino)-1-(6-(5-methylthiophene-2-carbonyl)-2,6-diazaspiro[3.3]heptan-2-yl)but-2-en-1-one] | 30% |
| Cc1ccc(C(=O)N2CC3CCC(C2)N3C(=O)/C=C/CN(C)C)s1 [XS185-70, (E)-4-(dimethylamino)-1-(3-(5-methylthiophene-2-carbonyl)-3,8-diazabicyclo[3.2.1]octan-8-yl)but-2-en-1-one] | 20% |
| Cc1ccc(C(=O)N2C3CCC2CN(C(=O)/C=C/CN(C)C)C3)s1 [XS185-71, (E)-4-(dimethylamino)-1-(8-(5-methylthiophene-2-carbonyl)-3,8-diazabicyclo[3.2.1]octan-3-yl)but-2-en-1-one] | 15% |
| Cc1ccc(C(=O)N2CC3CC(C2)N3C(=O)/C=C/CN(C)C)s1 [XS185-72, (E)-4-(dimethylamino)-1-(3-(5-methylthiophene-2-carbonyl)-3,6-diazabicyclo[3.1.1]heptan-6-yl)but-2-en-1-one] | 90% |
| Cc1ccc(N2CC3CCC(C2=O)N3C(=O)/C=C/CN(C)C)s1 (centres unmarked) [XS185-75, (E)-8-(4-(dimethylamino)but-2-enoyl)-3-(5-methylthiophen-2-yl)-3,8-diazabicyclo[3.2.1]octan-2-one] | 98% |
| CN(C)C/C=C/C(=O)N1CCN(c2cc3ccccc3o2)C(=O)C1 [XS185-78, (E)-1-(benzofuran-2-yl)-4-(4-(dimethylamino)but-2-enoyl)piperazin-2-one] | 40% |
| CN(C)C/C=C/C(=O)N1CCN(c2csc3ccccc23)C(=O)C1 [XS185-86, (E)-1-(benzo[b]thiophen-3-yl)-4-(4-(dimethylamino)but-2-enoyl)piperazin-2-one] | 80% |
| C=C(C#N)CN1CCN(c2ccc(C)s2)C(=O)C1 [XS185-87, 2-((4-(5-methylthiophen-2-yl)-3-oxopiperazin-1-yl)methyl)acrylonitrile] | 1% |
| CN(C)C/C=C/C(=O)N1CC(C(=O)Nc2cc3ccccc3s2)C1 [XS185-90, (E)-N-(benzo[b]thiophen-2-yl)-1-(4-(dimethylamino)but-2-enoyl)azetidine-3-carboxamide] | 60% |
| CN(C)C/C=C/C(=O)N1CC2(CC(C(=O)Nc3cc4ccccc4s3)C2)C1 [XS185-91, (E)-N-(benzo[b]thiophen-2-yl)-2-(4-(dimethylamino)but-2-enoyl)-2-azaspiro[3.3]heptane-6-carboxamide] | 25% |
| Cc1ccc(C(=O)N2CCC3(CC2)CN(C(=O)/C=C/CN(C)C)C3)s1 [XS185-96, (E)-4-(dimethylamino)-1-(7-(5-methylthiophene-2-carbonyl)-2,7-diazaspiro[3.5]nonan-2-yl)but-2-en-1-one] | 10% |
| Cc1ccc(C(=O)N2CCC3(CN(C(=O)/C=C/CN(C)C)C3)C2)s1 [XS185-97, (E)-4-(dimethylamino)-1-(6-(5-methylthiophene-2-carbonyl)-2,6-diazaspiro[3.4]octan-2-yl)but-2-en-1-one] | 25% |
| Cc1ccc(N2CCC3(CC2)CN(C(=O)/C=C/CN(C)C)C3)s1 [XS185-101, (E)-4-(dimethylamino)-1-(7-(5-methylthiophen-2-yl)-2,7-diazaspiro[3.5]nonan-2-yl)but-2-en-1-one] | 23% |
| Cc1ccc(N2CC3(CCN(C(=O)/C=C/CN(C)C)CC3)C2)s1 [XS185-109, (E)-4-(dimethylamino)-1-(2-(5-methylthiophen-2-yl)-2,7-diazaspiro[3.5]nonan-7-yl)but-2-en-1-one] | 1% |
| CN(C)C/C=C/C(=O)N1CC2(CC(C(=O)Nc3cc4c(s3)CCCC4)C2)C1 [XS185-114, (E)-2-(4-(dimethylamino)but-2-enoyl)-N-(4,5,6,7-tetrahydrobenzo[b]thiophen-2-yl)-2-azaspiro[3.3]heptane-6-carboxamide] | 18% |
| CN(C)C/C=C/C(=O)N1CCN(c2cc3ccccc3[nH]2)C(=O)C1 [XS185-116, (E)-4-(4-(dimethylamino)but-2-enoyl)-1-(1H-indol-2-yl)piperazin-2-one] | 55% |
| CN(C)C/C=C/C(=O)N1CC(C(=O)NC2CCCC2)C1 [XS185-131, (E)-N-cyclopentyl-1-(4-(dimethylamino)but-2-enoyl)azetidine-3-carboxamide] | 18% |
| CN(C)C/C=C/C(=O)N1CC2(CCN(c3cc4ccccc4s3)CC2)C1 [XS185-147, (E)-1-(7-(benzo[b]thiophen-2-yl)-2,7-diazaspiro[3.5]nonan-2-yl)-4-(dimethylamino)but-2-en-1-one] | 15% |
| Cc1ccc(C(=O)NC2CN(C(=O)/C=C/CN(C)C)C2)s1 [XS190-9, (E)-N-(1-(4-(dimethylamino)but-2-enoyl)azetidin-3-yl)-5-methylthiophene-2-carboxamide] | 38% |
| CN(C)C/C=C/C(=O)N1C2CCC1C(=O)N(c1cc3ccccc3s1)C2 (centres unmarked) [XS190-38, (E)-3-(benzo[b]thiophen-2-yl)-8-(4-(dimethylamino)but-2-enoyl)-3,8-diazabicyclo[3.2.1]octan-2-one] | 100% |
| CN(C)C/C=C/C(=O)N1C2CCC1C(=O)N(c1csc3ccccc13)C2 (centres unmarked) [XS190-44, (E)-3-(benzo[b]thiophen-3-yl)-8-(4-(dimethylamino)but-2-enoyl)-3,8-diazabicyclo[3.2.1]octan-2-one] | 97% |
| CN(C)C/C=C/C(=O)N1C2CCC1C(=O)N(c1ccc(-c3ccccc3)s1)C2 (centres unmarked) [XS190-45, (E)-8-(4-(dimethylamino)but-2-enoyl)-3-(5-phenylthiophen-2-yl)-3,8-diazabicyclo[3.2.1]octan-2-one] | 90% |
| CN(C)C/C=C/C(=O)N1C2CC1CN(C(=O)c1cc3ccccc3s1)C2 [XS190-46, (E)-1-(3-(benzo[b]thiophene-2-carbonyl)-3,6-diazabicyclo[3.1.1]heptan-6-yl)-4-(dimethylamino)but-2-en-1-one] | 90% |
| CN(C)C/C=C/C(=O)N1C2CC1CN(C(=O)c1csc3ccccc13)C2 [XS190-47, (E)-1-(3-(benzo[b]thiophene-3-carbonyl)-3,6-diazabicyclo[3.1.1]heptan-6-yl)-4-(dimethylamino)but-2-en-1-one] | 70% |
| CN(C)C/C=C/C(=O)N1C2CC1CN(C(=O)c1cc3c(s1)CCCC3)C2 [XS190-48, (E)-4-(dimethylamino)-1-(3-(4,5,6,7-tetrahydrobenzo[b]thiophene-2-carbonyl)-3,6-diazabicyclo[3.1.1]heptan-6-yl)but-2-en-1-one] | 90% |
| CN(C)C/C=C/C(=O)N1C2CC1CN(C(=O)c1csc3c1CCCC3)C2 [XS190-49, (E)-4-(dimethylamino)-1-(3-(4,5,6,7-tetrahydrobenzo[b]thiophene-3-carbonyl)-3,6-diazabicyclo[3.1.1]heptan-6-yl)but-2-en-1-one] | 70% |
| CN(C)C/C=C/C(=O)N1C2CC1CN(C(=O)c1cc3c(s1)CCC3)C2 [XS190-50, (E)-1-(3-(5,6-dihydro-4H-cyclopenta[b]thiophene-2-carbonyl)-3,6-diazabicyclo[3.1.1]heptan-6-yl)-4-(dimethylamino)but-2-en-1-one] | 92% |
